Measured values published in ChEMBL document CHEMBL3046407, “Toxicity of monoterpenes against larvae and adults of Colorado potato beetle, Leptinotarsa decemlineata Say (Coleoptera: Chrysomelidae)” (2007).

Columns and labels:
Type in all cases: functional
[1] = system: Leptinotarsa decemlineata; assay: Insecticidal activity against first-instar larval stage of Leptinotarsa decemlineata infested potato leaves assessed as mortality at 20 ul after 24 hr relative to control
[2] = system: Leptinotarsa decemlineata; assay: Insecticidal activity against adult Leptinotarsa decemlineata infested potato leaves assessed as mortality at 10 ul after 24 hr relative to control
[3] = system: Leptinotarsa decemlineata; assay: Insecticidal activity against third-instar larval stage of Leptinotarsa decemlineata infested potato leaves assessed as mortality at 10 ul after 96 hr (reference value: 3.3 +/- 3.3%)
[4] = system: Leptinotarsa decemlineata; assay: Insecticidal activity against second-instar larval stage of Leptinotarsa decemlineata infested potato leaves assessed as mortality at 20 ul after 96 hr (reference value: 3.3 +/- 3.3%)
[5] = system: Leptinotarsa decemlineata; assay: Insecticidal activity against first-instar larval stage of Leptinotarsa decemlineata infested potato leaves assessed as mortality at 10 ul after 96 hr relative to control
[6] = system: Leptinotarsa decemlineata; assay: Insecticidal activity against third-instar larval stage of Leptinotarsa decemlineata infested potato leaves assessed as mortality at 10 ul after 48 hr (reference value: 3.3 +/- 3.3%)
[7] = system: Leptinotarsa decemlineata; assay: Insecticidal activity against second-instar larval stage of Leptinotarsa decemlineata infested potato leaves assessed as mortality at 20 ul after 24 hr (reference value: 3.3 +/- 3.3%)
[8] = system: Leptinotarsa decemlineata; assay: Insecticidal activity against first-instar larval stage of Leptinotarsa decemlineata infested potato leaves assessed as mortality at 10 ul after 48 hr relative to control
[9] = system: Leptinotarsa decemlineata; assay: Insecticidal activity against adult Leptinotarsa decemlineata infested potato leaves assessed as mortality at 10 ul after 12 hr relative to control
[10] = system: Leptinotarsa decemlineata; assay: Insecticidal activity against first-instar larval stage of Leptinotarsa decemlineata infested potato leaves assessed as mortality at 20 ul after 12 hr relative to control
[11] = system: Leptinotarsa decemlineata; assay: Insecticidal activity against third-instar larval stage of Leptinotarsa decemlineata infested potato leaves assessed as mortality at 20 ul after 24 hr relative to control
[12] = system: Leptinotarsa decemlineata; assay: Insecticidal activity against third-instar larval stage of Leptinotarsa decemlineata infested potato leaves assessed as mortality at 20 ul after 48 hr (reference value: 3.3 +/- 3.3%)
[13] = system: Leptinotarsa decemlineata; assay: Insecticidal activity against adult Leptinotarsa decemlineata infested potato leaves assessed as mortality at 20 ul after 48 hr relative to control
[14] = system: Leptinotarsa decemlineata; assay: Insecticidal activity against second-instar larval stage of Leptinotarsa decemlineata infested potato leaves assessed as mortality at 20 ul after 48 hr (reference value: 3.3 +/- 3.3%)
[15] = system: Leptinotarsa decemlineata; assay: Insecticidal activity against second-instar larval stage of Leptinotarsa decemlineata infested potato leaves assessed as mortality at 10 ul after 24 hr (reference value: 3.3 +/- 3.3%)
[16] = system: Leptinotarsa decemlineata; assay: Insecticidal activity against third-instar larval stage of Leptinotarsa decemlineata infested potato leaves assessed as mortality at 20 ul after 96 hr (reference value: 3.3 +/- 3.3%)
[17] = system: Leptinotarsa decemlineata; assay: Insecticidal activity against adult Leptinotarsa decemlineata infested potato leaves assessed as mortality at 20 ul after 12 hr relative to control
[18] = system: Leptinotarsa decemlineata; assay: Insecticidal activity against second-instar larval stage of Leptinotarsa decemlineata infested potato leaves assessed as mortality at 10 ul after 12 hr relative to control
[19] = system: Leptinotarsa decemlineata; assay: Insecticidal activity against adult Leptinotarsa decemlineata infested potato leaves assessed as mortality at 10 ul after 96 hr relative to control
[20] = system: Leptinotarsa decemlineata; assay: Insecticidal activity against second-instar larval stage of Leptinotarsa decemlineata infested potato leaves assessed as mortality at 10 ul after 96 hr (reference value: 3.3 +/- 3.3%)
[21] = system: Leptinotarsa decemlineata; assay: Insecticidal activity against adult Leptinotarsa decemlineata infested potato leaves assessed as mortality at 20 ul after 24 hr relative to control
[22] = system: Leptinotarsa decemlineata; assay: Insecticidal activity against second-instar larval stage of Leptinotarsa decemlineata infested potato leaves assessed as mortality at 10 ul after 48 hr (reference value: 3.3 +/- 3.3%)
[23] = system: Leptinotarsa decemlineata; assay: Insecticidal activity against adult Leptinotarsa decemlineata infested potato leaves assessed as mortality at 20 ul after 96 hr relative to control
[24] = system: Leptinotarsa decemlineata; assay: Insecticidal activity against third-instar larval stage of Leptinotarsa decemlineata infested potato leaves assessed as mortality at 10 ul after 12 hr relative to control
[25] = system: Leptinotarsa decemlineata; assay: Insecticidal activity against adult Leptinotarsa decemlineata infested potato leaves assessed as mortality at 10 ul after 48 hr relative to control
[26] = system: Leptinotarsa decemlineata; assay: Insecticidal activity against third-instar larval stage of Leptinotarsa decemlineata infested potato leaves assessed as mortality at 10 ul after 24 hr relative to control
Sitophilus granarius = assay: Insecticidal activity against Sitophilus granarius (granary weevil) assessed as mortality
[27] = system: Leptinotarsa decemlineata; assay: Insecticidal activity against first-instar larval stage of Leptinotarsa decemlineata infested potato leaves assessed as mortality at 20 ul after 48 hr relative to control
[28] = system: Leptinotarsa decemlineata; assay: Insecticidal activity against second-instar larval stage of Leptinotarsa decemlineata infested potato leaves assessed as mortality at 20 ul after 12 hr relative to control
[29] = system: Leptinotarsa decemlineata; assay: Insecticidal activity against third-instar larval stage of Leptinotarsa decemlineata infested potato leaves assessed as mortality at 20 ul after 12 hr relative to control
[30] = system: Leptinotarsa decemlineata; assay: Insecticidal activity against first-instar larval stage of Leptinotarsa decemlineata infested potato leaves assessed as mortality at 10 ul after 24 hr relative to control
[31] = system: Leptinotarsa decemlineata; assay: Insecticidal activity against first-instar larval stage of Leptinotarsa decemlineata infested potato leaves assessed as mortality at 20 ul after 96 hr relative to control
[32] = system: Leptinotarsa decemlineata; assay: Insecticidal activity against first-instar larval stage of Leptinotarsa decemlineata infested potato leaves assessed as mortality at 10 ul after 12 hr relative to control

SMILES | mortality [1] [%] | mortality [2] [%] | mortality [3] [%] | mortality [4] [%] | mortality [5] [%] | mortality [6] [%] | mortality [7] [%] | mortality [8] [%] | mortality [9] [%] | mortality [10] [%] | mortality [11] [%] | mortality [12] [%] | mortality [13] [%] | mortality [14] [%] | mortality [15] [%] | mortality [16] [%] | mortality [17] [%] | mortality [18] [%] | mortality [19] [%] | mortality [20] [%] | also measured
C=C(C)[C@H]1CC=C(C)CC1 [D-LIMONENE] | 76.7 | 100 | 53.3 | 90 | 90 | 50 | 80 | 83.3 | 83.3 | 43.3 | 60 | 63.3 | 100 | 80 | 86.7 | 70 | 90 | 53.3 | 100 | 93.3 | mortality [21]: 100%; mortality [22]: 90%; mortality [23]: 100%; mortality [24]: 0%; mortality [25]: 100%; mortality [26]: 46.7%; mortality (Sitophilus granarius): 90%; mortality [27]: 80%; mortality [28]: 76.7%; mortality [29]: 33.3%; mortality [30]: 50%; mortality [31]: 90%; mortality [32]: 23.3%
CC12CCC(CC1)C(C)(C)O2 [EUCALYPTOL] | 100 | 100 | 76.7 | 100 | 100 | 63.3 | 100 | 83.3 | 100 | 46.7 | 73.3 | 80 | 100 | 100 | 100 | 86.7 | 83.3 | 43.3 | 100 | 100 | mortality [21]: 100%; mortality [22]: 100%; mortality [23]: 100%; mortality [24]: 40%; mortality [25]: 100%; mortality [26]: 50%; mortality (Sitophilus granarius): 90%; mortality [27]: 100%; mortality [28]: 83.3%; mortality [29]: 56.7%; mortality [30]: 66.7%; mortality [31]: 100%; mortality [32]: 26.7%
CC(C)[C@H]1CC[C@H](C)CC1=O (relative stereo) [REL-MENTHONE] | 53.3 | 93.3 | 56.7 | 56.7 | 50 | 53.3 | 53.3 | 40 | 70 | 26.7 | 30 | 43.3 | 100 | 56.7 | 33.3 | 50 | 83.3 | 13.3 | 100 | 36.7 | mortality [21]: 100%; mortality [22]: 33.3%; mortality [23]: 100%; mortality [24]: 30%; mortality [25]: 100%; mortality [26]: 50%; mortality (Sitophilus granarius): 90%; mortality [27]: 56.7%; mortality [28]: 26.7%; mortality [29]: 23.3%; mortality [30]: 23.3%; mortality [31]: 66.7%; mortality [32]: 6.7%
